Measurements: patent US12570665B2, “Compositions comprising fullerenyl mesochlorin nano-photosensitizers with covalently bound antibiotics and their uses in combination therapy” (priority 2019, dated 2026)

Tests used:
[1] = tested on: A. baumannii (AF0004); conditions: 12.5 μM
From the text: Bacterial strains: Two Gram-positive MRSA strains (IQ0064 and IB0004) and one Gram-negative Acinetobacter baumannii strain (AF0004) were studied. All of them are clinical isolates. MRSA IQ0064 was a multidrug-resistant strain isolated from wounded military personnel deployed to Iraq. According to a microbiology test, IQ0064 strain was resistant to ampicillin, cefazolin, cefoxitin, oxacillin, and penicillin. MRSA IB0004 was an isolate from a keratitis patient. A. baumannii AF0004 was a multidrug-resistant strain isolated from wounded military personnel deployed to Afghanistan. […]
Light source: Light was delivered topically using a noncoherent light source (LumaCare, Newport Beach, CA) that provided the full spectrum of visible light (400 to 800 nm). […] The light power was routinely measured using a laser power meter (Fieldmate; Coherent, Portland, OR).
Antimicrobial photodynamic inactivation (aPDI) of bacteria: Bacterial suspensions were adjusted to 10^8 CFU/mL, inoculated to 96-well plates (200 μL/well), incubated with fullerenes at 6.25, 12.50, 18.75, and 25.00 μM concentrations for 1.0 h and then either left in dark or irradiated with 660 nm light at 115 J/cm^2. […] Survival fractions were routinely expressed as ratios of CFU of bacterial cells treated with light and fullerene monoadducts, or treated with fullerenes in the absence of light, to CFU of bacteria treated with neither.

[2] = tested on: MRSA (strain IQ0064); type: cell-based, Staphylococcus aureus
Method: (§1) FIG. 3. (A) aPDT against vancomycin-resistant and sensitive strains of E. fecium (VSE). Log10 survival fractions of E. fecium (10^8 cells/mL) incubated for 30 min with 50-nM concentration of VCM-mPheZn-N5^+ (LC39, see Huang, L., Wang, M., Chiang, L. Y., Hamblin, M. R., et al. Photochem. Photobiol. Sci. 2018, 17, 638-651) by irradiation with increasing exposes of a 415-nm LED light. […] Irradiation was carried out with (C) the radiant exposure of 115 J/cm^2 at 660 nm (LED light, 40 mW/cm^2) and (D) the radiant exposure of 20 J/cm^2 at 405 nm (LED light, 24 mW/cm^2). All data were represented as login survival fractions as a function of both aPDI agent concentration and light wavelength/exposure, where the dashed red line in Panel Cd represents the detection limit of MRSA CFU. […] (E) Concentration dependent aPDI of MRSA (strain IQ0064) by ChlPd-(C70>)N10^+ (LC41) upon illumination at 115 J/cm^2 and 660-nm wavelength (40 mW/cm^2).
Bacterial strains: Two Gram-positive MRSA strains (IQ0064 and IB0004) and one Gram-negative Acinetobacter baumannii strain (AF0004) were studied. All of them are clinical isolates. MRSA IQ0064 was a multidrug-resistant strain isolated from wounded military personnel deployed to Iraq. According to a microbiology test, IQ0064 strain was resistant to ampicillin, cefazolin, cefoxitin, oxacillin, and penicillin. MRSA IB0004 was an isolate from a keratitis patient. A. baumannii AF0004 was a multidrug-resistant strain isolated from wounded military personnel deployed to Afghanistan. AF0004 was resistant to a panel of important antibiotics including amikacin, ampicillin, aztreonam, cefazolin, cefepime, cefoxitin, ceftazidime, ceftriaxone, cefuroxime, ciprofloxacin, gentamicin, imipenem, levofloxacin, meropenem, nitrofurantoin, tetracycline and trimethoprim-sulfamethoxazole.
Light source: Light was delivered topically using a noncoherent light source (LumaCare, Newport Beach, CA) that provided the full spectrum of visible light (400 to 800 nm). The system employed interchangeable filter probes and produced a uniform spot for illumination. We used a 660±15-nm filter probe. The irradiance of 40 mW/cm^2 was used throughout the study. The light power was routinely measured using a laser power meter (Fieldmate; Coherent, Portland, OR).
Antimicrobial photodynamic inactivation (aPDI) of bacteria: Bacterial suspensions were adjusted to 10^8 CFU/mL, inoculated to 96-well plates (200 μL/well), incubated with fullerenes at 6.25, 12.50, 18.75, and 25.00 μM concentrations for 1.0 h and then either left in dark or irradiated with 660 nm light at 115 J/cm^2. At the completion of each stage of illumination, the contents of the wells were well mixed before sampling. Aliquots (30 μL) were taken from each well to determine CFU. The aliquots were serially diluted 10-fold in phosphate-buffered saline (PBS) to give dilutions of 10^1 to 10^5 times in addition to the original concentration; then, 10 μL aliquots of each of the dilutions were streaked horizontally on square BHI plates. Plates were streaked in triplicate and incubated for 24 h at 37° C. in the dark to allow colony formation. Control groups included bacterial cells that were treated with light alone (no fullerene monoadducts added), and cells treated with fullerene monoadducts (no light) as the dark control. Survival fractions were routinely expressed as ratios of CFU of bacterial cells treated with light and fullerene monoadducts, or treated with fullerenes in the absence of light, to CFU of bacteria treated with neither.

[3] = tested on: MRSA cells; experiment: Binding to MRSA cells by confocal microscopy fluorescence imaging; type: cell-based, Staphylococcus aureus; conditions: 405-nm irradiation, red emission 640-780 nm
[4] = tested on: MRSA; conditions: against MRSA
[5] = tested on: E. fecium; conditions: 50 nM, 415 nm irradiation, VCM-resistant and sensitive strains
Method: as §1

Molecule: 3a-hydroxy-3b-aminoethylene-aminoPEGlycolated vancomycin-15b-methyl-13a,17c-di[N,N′,N,N,N,N-hexapropyl-panta(aminoethylene)]amide-mesochlorin [LC40e]
- dark toxicity to A. baumannii cells ([1]; no light): about 1.5 log10 CFU
- CFU reduction (inactivation of A. baumannii CFUs) ([1]; red light 660 nm, 115 J/cm^2): > 6 log10 CFU
- photokilling efficacy on MRSA ([2]; 10-20 μM, 405-nm irradiation, 20 J/cm^2): 5.0 log10
- CFU reduction (photokilling of MRSA) ([2]; 10-20 μM, 660-nm light, 115 J/cm^2): > 6.5 log10 CFU
- light mediated killing of MRSA cells (qualitative) ([2]; 405- and 660-nm photoexcitation, up to 20 μM): susceptible to light mediated killing
- additional increase in the inactivation of bacteria by the combination of antibiotics and aPDT ([2]; combination versus antibiotic activity alone): 3 log10 CFU
- antibiotic activity, CFU killing without red-light irradiation ([2]; without red-light irradiation, bacterium not given, MRSA implied): 4 log10 CFU
- red FL emission on pretreated MRSA cells (relative cell affinity) [3]: significantly enhanced
- MIC [4]: 2.0 µg/mL

Molecule: 3a-hydroxy-3b-vancomycin-15b-methyl-17c-[N,N′,N,N,N,N-hexapropyl-penta(aminoethylene)]amide-[Zn^+2]mesopheophorbide [LC39]
- aPDT effect [5]: excellent aPDT effect

Molecule: CN[C@H](CC(C)C)C(=O)N[C@H]1C(=O)N[C@@H](CC(N)=O)C(=O)N[C@H]2C(=O)N[C@H]3C(=O)N[C@H](C(=O)N[C@H](C(=O)O)c4cc(O)cc(O)c4-c4cc3ccc4O)[C@H](O)c3ccc(c(Cl)c3)Oc3cc2cc(c3O[C@@H]2O[C@H](CO)[C@@H](O)[C@H](O)[C@H]2O[C@H]2C[C@](C)(N)[C@H](O)[C@H](C)O2)Oc2ccc(cc2Cl)[C@H]1O [vancomycin, reference compound]
- effect on viability of MRSA cells ([2]; equivalent dose, control, 660 nm and 405 nm (FIGS. 3Ca, 3Da)): negligible effect
